Laboratory results published in ChEMBL document CHEMBL2150878, “Discovery of an Orally Available, Brain Penetrant BACE1 Inhibitor that Affords Robust CNS Aβ Reduction” (ACS Med Chem Lett, 2012).
Converted amounts (≈) assume the structure as drawn.

Columns and labels:
Rattus norvegicus [1] = test: AUC (0 to 6 hrs) in rat at 10 mg/kg, po; format: ADME, organism-based, Plasma; design: time < 6 hr, dose 10 mg/kg, route oral; settings: in vivo
[2] = Solubility of the compound at pH 7.4; format: physicochemical; settings: buffer
[3] = Dissociation constant, pKa of the compound; format: physicochemical
Rattus norvegicus [4] = test: Terminal half life in Sprague-Dawley rat at 3 mg/kg, iv; format: ADME, organism-based; design: dose 3 mg/kg, route intravenous; settings: in vivo
Nucleic Acid = test: Ratio of drug level in brain to plasma in Sprague-Dawley rat at 3 mg/kg, po after 3 hrs; format: ADME, organism-based; design: dose 3 mg/kg, route oral
[5] = Intrinsic clearance in human hepatocytes assessed per 10^6 cells at 1 uM up to 180 mins; format: ADME, cell-based, Hepatocyte; settings: read-out: CLH
Rattus norvegicus [6] = test: Oral bioavailability in Sprague-Dawley rat at 3 mg/kg; format: ADME, organism-based; settings: in vivo
Caco-2 = test: Apparent permeability of the compound in human Caco2 cells; format: ADME, cell-based
[7] = Lipophilicity, log D of the compound; format: physicochemical; settings: octanol/water
[8] = Intrinsic clearance in rat hepatocytes assessed per 10^6 cells at 1 uM up to 180 mins; format: ADME, cell-based, Hepatocyte; settings: read-out: CLH

SMILES: COc1cccc(-c2cccc([C@]3(C)CC(=O)N(C)C(=N)N3)c2)c1
- AUC (Rattus norvegicus [1]): < 1 µM·h

SMILES: CN1C(=N)N[C@](C)(c2cccc(-c3cccc(C#N)c3)c2)CC1=O
- AUC (Rattus norvegicus [1]): 8.6 µM·h

SMILES: CN1C(=N)N[C@](C)(c2cccc(-c3cccnc3)c2)CC1=O
- AUC (Rattus norvegicus [1]): < 1 µM·h

SMILES: CC#Cc1cncc(-c2cc(Cl)c([C@]3(C)CC(=O)N(C)C(=N)N3)s2)c1
- solubility [2]: 200 µM (≈ 74.6 µg/mL)
- pKa [3]: 7.5
- beta t1/2 (Rattus norvegicus [4]): 2.8 h
- BPR (Nucleic Acid): 3
- hepatocyte CLint at 1 µM [5]: 2.7 µL/min/1e6 cells
- F (Rattus norvegicus [6]): 69%
- Papp (Caco-2): 153 nm/s
- logD [7]: 1.8
- hepatocyte CLint at 1 µM [8]: 4.9 µL/min/1e6 cells
